Measurements from PMC11649115, “In vitro safety evaluation of dopamine D3R antagonist, R-VK4-116, as a potential medication for the treatment of opioid use disorder” (PLOS ONE, 2024).
Where two headings read alike, the source gives them in different places.

Assays:
[1] = target: CYP2D6 (Homo sapiens, UniProt P10635); test: CYP inhibition in human liver microsomes; conditions: human liver microsomes
[2] = tested on: D3R; design: method as in PMID 31526003; conditions: read-out: antagonist effect on D3R (IC50); cited from earlier work
[3] = tested on: plasma proteins; test: Plasma protein binding, Sephadex G-25 gel filtration; format: in vitro ADME, human; conditions: human, plasma, human plasma, nominal 1 μM; read-out: % Bound, Mean ± SD (converted)
Experimental: The gel filtration used solid-phase extraction columns containing hydrated gel filtration beads (Sephadex G-25). […] In this method, the amount of analyte accompanying the proteins (i.e., protein-bound R-VK4-116) before and after filtration was assayed for analyte concentration by LC-MS/MS.

[4] = tested on: human hepatocytes; test: Metabolic stability in hepatocyte; conditions: for % remaining Vs T = 0 min: human hepatocytes
Experimental: CYP3A4 substrate Midazolam (10 μM) was prepared and incubated in the same manner. […] In addition, in vitro half-life (t1/2, min) and intrinsic clearance (CLint, μl/min/10^6 cells) were calculated [10, 11].

[5] = target: hERG (Homo sapiens, UniProt Q12809); test: CiPA IonChannelProfiler Cardiac Panel, QPatch
hERG, sequence (Q12809 whole entry): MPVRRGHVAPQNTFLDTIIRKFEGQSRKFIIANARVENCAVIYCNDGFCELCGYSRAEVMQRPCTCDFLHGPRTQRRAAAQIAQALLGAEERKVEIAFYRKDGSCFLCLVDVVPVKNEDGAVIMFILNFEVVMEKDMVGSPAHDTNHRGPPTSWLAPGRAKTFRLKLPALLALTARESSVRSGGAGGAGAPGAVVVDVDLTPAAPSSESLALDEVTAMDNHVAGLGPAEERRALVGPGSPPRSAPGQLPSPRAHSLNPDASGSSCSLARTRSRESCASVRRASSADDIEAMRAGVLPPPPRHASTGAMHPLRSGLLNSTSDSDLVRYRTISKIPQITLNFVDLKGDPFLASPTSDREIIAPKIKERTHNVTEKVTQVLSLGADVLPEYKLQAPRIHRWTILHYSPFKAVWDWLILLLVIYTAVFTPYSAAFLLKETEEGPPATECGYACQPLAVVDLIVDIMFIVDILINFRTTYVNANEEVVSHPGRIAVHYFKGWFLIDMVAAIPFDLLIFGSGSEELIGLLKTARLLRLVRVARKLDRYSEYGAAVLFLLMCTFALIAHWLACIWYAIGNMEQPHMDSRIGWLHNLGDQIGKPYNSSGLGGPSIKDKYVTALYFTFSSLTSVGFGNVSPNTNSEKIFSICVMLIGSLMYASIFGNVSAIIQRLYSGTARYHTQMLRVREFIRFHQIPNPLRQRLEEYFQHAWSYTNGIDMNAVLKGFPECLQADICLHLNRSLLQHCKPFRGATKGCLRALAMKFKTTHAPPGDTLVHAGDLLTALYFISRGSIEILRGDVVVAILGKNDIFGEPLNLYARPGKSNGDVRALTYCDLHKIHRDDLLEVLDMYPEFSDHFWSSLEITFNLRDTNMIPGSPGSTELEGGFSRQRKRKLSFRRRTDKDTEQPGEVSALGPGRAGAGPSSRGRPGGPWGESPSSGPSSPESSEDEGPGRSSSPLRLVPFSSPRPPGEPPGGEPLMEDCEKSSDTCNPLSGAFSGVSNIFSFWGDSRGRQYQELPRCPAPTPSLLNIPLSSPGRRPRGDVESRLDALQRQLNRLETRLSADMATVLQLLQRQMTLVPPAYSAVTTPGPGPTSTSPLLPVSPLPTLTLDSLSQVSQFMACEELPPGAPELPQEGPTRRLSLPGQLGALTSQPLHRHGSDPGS

[6] = tested on: oxycodone self-administration; design: method as in PMID 30555159; conditions: rodents, 5, 15 and 25 mg/kg ref 6; cited from earlier work
[7] = target: T1, SRPK2 (Homo sapiens, UniProt P78362); test: KINOMEscan binding (% Ctrl, Kd)
T1 construct: made in house; host or cells: E. coli BL21-derived host (T7 phage) or HEK-293
T1 sequence (P78362 whole entry): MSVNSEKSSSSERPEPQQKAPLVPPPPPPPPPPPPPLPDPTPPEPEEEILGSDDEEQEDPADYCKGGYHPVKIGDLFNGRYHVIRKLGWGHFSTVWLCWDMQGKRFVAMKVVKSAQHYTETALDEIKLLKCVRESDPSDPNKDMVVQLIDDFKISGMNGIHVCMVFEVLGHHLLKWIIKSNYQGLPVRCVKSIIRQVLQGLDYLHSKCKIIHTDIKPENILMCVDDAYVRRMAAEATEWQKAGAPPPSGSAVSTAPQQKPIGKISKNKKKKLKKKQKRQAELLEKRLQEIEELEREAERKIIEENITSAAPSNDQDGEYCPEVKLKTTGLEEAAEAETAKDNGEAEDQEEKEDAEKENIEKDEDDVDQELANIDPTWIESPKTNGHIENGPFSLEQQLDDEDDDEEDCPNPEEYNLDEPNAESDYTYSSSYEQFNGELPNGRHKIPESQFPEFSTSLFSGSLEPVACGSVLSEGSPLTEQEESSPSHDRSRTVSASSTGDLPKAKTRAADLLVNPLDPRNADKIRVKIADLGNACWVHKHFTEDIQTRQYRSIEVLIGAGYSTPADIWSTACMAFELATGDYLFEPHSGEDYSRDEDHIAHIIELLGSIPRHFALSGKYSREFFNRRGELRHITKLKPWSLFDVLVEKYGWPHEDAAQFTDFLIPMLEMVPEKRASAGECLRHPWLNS
Experimental: Briefly, E. coli host derived from the BL21 strain were grown to log-phase and infected with kinase-tagged T7 phage and incubated with shaking at 32°C until lysis. The lysates were centrifuged and filtered to remove cell debris. The remaining kinases were produced in HEK-293 cells and subsequently tagged with DNA for qPCR detection. Streptavidin-coated magnetic beads were treated with biotinylated small molecule ligands to generate affinity resins for kinase assays. The liganded beads were blocked with excess biotin and washed to remove unbound ligand and to reduce non-specific phage binding. […] Selectivity Score (S-score) was a quantitative measure of compound selectivity. […] The binding constants (Kds) were also determined with a standard dose-response curve using the Hill equation and Levenberg-Marquardt algorithm [24, 25].

[8] = tested on: CYP2B6; test: CYP induction, mRNA, primary cultured human hepatocytes; conditions: primary cultured human hepatocytes, Fold Induction (CYP2B6 mRNA expression)
From the text: (§1) Rifampicin as a positive control and solvent (0.1% DMSO) vehicle control were also included. The acceptance criteria for CYP induction was ≥ 2-fold induction for significant CYP activity, while the acceptance criteria for CYP mRNA was ≥ 4-fold for significant CYP induction.

[9] = tested on: CYP2B6 mRNA; test: as above; conditions: primary cultured human hepatocytes, Fold Induction (CYP2B6 mRNA expression)
From the text: as §1

[10] = Metabolic stability in liver microsomes; conditions: human, pH 7.4
[11] = target: T2, OAT1 (Homo sapiens, UniProt Q4U2R8); test: Transporter mediated assay (substrate/inhibitor), MDCK-II cells; format: in vitro ADME
T2 construct: expressed in transfected cells; host or cells: MDCK-II cells
T2 sequence (Q4U2R8 1-563): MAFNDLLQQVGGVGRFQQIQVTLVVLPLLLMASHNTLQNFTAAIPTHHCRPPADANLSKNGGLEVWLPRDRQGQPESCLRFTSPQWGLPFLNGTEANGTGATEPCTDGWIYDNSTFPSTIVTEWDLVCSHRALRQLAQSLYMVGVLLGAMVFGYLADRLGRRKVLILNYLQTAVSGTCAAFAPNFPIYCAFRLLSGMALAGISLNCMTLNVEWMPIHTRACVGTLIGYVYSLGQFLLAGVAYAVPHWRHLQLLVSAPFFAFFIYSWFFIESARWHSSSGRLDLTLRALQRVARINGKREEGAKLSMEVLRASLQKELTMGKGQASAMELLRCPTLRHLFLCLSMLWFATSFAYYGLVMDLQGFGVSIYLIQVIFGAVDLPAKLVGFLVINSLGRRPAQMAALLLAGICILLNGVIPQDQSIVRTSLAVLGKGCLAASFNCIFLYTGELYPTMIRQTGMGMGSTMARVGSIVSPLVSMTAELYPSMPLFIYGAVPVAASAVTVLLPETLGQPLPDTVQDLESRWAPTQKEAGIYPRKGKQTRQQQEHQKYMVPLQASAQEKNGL
Experimental: The MDCK-II cells were treated to express the transporter of interest. The transport of each probe substrate was determined by radiometric detection (Fig 1 in S1 File). […] For the uptake assay, the net transporter-mediated uptake-rate (V) of the substrate by each SLC transporter was calculated as follows: Transporter–mediatedupdaterate(pmol/min/cm^2)=(Cellularaccumulationincellsexpressingthetransporter)−(Meancellularaccumulationincontrolcells)/Surfacearea×incubationtime

[12] = target: T3, Kir2.1 (Homo sapiens, UniProt P63252); test: CiPA IonChannelProfiler Cardiac Panel, QPatch; format: cell-based; conditions: Kir2.1, 100 μM
T3 sequence (P63252 1-427): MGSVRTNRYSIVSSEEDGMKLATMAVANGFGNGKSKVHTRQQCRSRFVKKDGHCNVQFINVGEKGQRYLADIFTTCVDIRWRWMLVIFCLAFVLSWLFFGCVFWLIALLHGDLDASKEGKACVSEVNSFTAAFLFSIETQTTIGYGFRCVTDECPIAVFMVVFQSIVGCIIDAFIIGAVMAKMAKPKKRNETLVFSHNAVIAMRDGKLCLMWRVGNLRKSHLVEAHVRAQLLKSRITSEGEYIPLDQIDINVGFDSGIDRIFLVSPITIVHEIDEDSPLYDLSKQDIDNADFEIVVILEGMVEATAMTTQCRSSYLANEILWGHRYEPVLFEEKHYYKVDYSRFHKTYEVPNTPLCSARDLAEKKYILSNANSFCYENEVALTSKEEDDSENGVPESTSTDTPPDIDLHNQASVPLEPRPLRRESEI

[13] = heat-inactivated liver microsomes

CYP2D6, sequence (P10635 whole entry): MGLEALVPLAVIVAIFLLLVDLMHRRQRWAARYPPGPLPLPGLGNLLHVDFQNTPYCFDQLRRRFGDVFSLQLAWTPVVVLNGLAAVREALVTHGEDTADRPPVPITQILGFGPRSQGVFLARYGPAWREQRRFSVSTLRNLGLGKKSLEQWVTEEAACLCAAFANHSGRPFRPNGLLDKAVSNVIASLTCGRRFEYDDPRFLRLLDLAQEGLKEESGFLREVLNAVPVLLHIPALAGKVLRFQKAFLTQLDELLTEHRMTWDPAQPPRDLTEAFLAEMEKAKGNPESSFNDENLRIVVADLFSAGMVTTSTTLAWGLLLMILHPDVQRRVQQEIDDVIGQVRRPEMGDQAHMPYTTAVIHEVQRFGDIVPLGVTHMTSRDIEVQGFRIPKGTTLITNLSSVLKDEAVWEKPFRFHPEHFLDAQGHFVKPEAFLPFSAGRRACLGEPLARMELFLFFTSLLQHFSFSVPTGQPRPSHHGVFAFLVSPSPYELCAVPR

In the case of `CCc1cc(Cl)c(OC)c(N2CCN(CC(O)CCNC(=O)c3cc4ccccc4[nH]3)CC2)c1` (stereo not drawn) [R-VK4-116, N-(4-(4-(3-chloro-5-ethyl-2-methoxyphenyl)piperazin-1-yl)-3-hydroxybutyl)-1H-indole-2-carboxamide], the CYP2D6 inhibition ([1]; up to 100 μM) is reported as “did not inhibit CYP significantly”, the activity at 20 min, 0.1 µM ([1]; human, probe bufuralol) is reported as 92.6 ± 9% and the activity at 20 min, 0.3 µM ([1]; human, probe bufuralol) is reported as 86.1 ± 4%. The activity at 20 min, 1 µM ([1]; human, probe bufuralol) was 84.3 ± 3.7%, the activity at 20 min, 3 µM ([1]; human, probe bufuralol) was 92.1 ± 6.8% and the activity at 20 min, 10 µM ([1]; human, probe bufuralol) was 94.7 ± 6.5%. The activity at 20 min, 30 µM ([1]; human, probe bufuralol) was 83.1 ± 1.6%, the activity at 20 min, 60 µM ([1]; human, probe bufuralol) was 84.5 ± 1.8% and the activity at 20 min, 100 µM ([1]; human, probe bufuralol) was 95 ± 7.5%. For the same compound, the IC50 [2] was 350 nM, the fraction unbound at 2 h, 1 μM [3] was 0.141 and the “% remaining Vs T = 0 min” value ([4]; 0.5 μM, 0 min) was 100.0%. For the same compound, the “% remaining Vs T = 0 min” value ([4]; 0.5 μM, 30 min) was 89.1%, the “% remaining Vs T = 0 min” value ([4]; 0.5 μM, 60 min) was 78.4% and the “% remaining Vs T = 0 min” value ([4]; 0.5 μM, 90 min) was 65.4%. The “% remaining Vs T = 0 min” value ([4]; 0.5 μM, 120 min) was 48.1%, the “% remaining Vs T = 0 min” value ([4]; 10 μM, 0 min) was 100.0% and the “% remaining Vs T = 0 min” value ([4]; 10 μM, 30 min) was 93.2%. The “% remaining Vs T = 0 min” value ([4]; 10 μM, 60 min) was 85.5%, the “% remaining Vs T = 0 min” value ([4]; 10 μM, 90 min) was 78.9% and the “% remaining Vs T = 0 min” value ([4]; 10 μM, 120 min) was 79.7%. For the same compound, the metabolic stability ([4]; human, rat, or dog hepatocytes, 0.5 and 10 μM) was “metabolically stable”, the inhibition at 10 µM ([5]; 10 μM) was 54.6% and the inhibition at 100 µM ([5]; 100 μM) was 82.3%. For the same compound, the inhibition at 10 µM ([5]; ≥10 μM) was 54 to 82%, the oxycodone self-administration [6] was “decreased” and the Kd ([7]; 11-point curve 0.001 to 10 μM, read-out: binding constant (Kd)) was greater than 10000 nM. It also gave a remaining binding at 1 µM ([7]; read-out: %Control) of less than 35%, a remaining binding at 1 µM ([7]; read-out: Gene (S-score with % control): SRPK2) of 21% and a fold induction at 48 h, 0.01 µM ([8]; hepatocyte Lot 336, 0.01 µM) of 1. It also gave a fold induction at 48 h, 0.1 µM ([8]; hepatocyte Lot 336, 0.1 µM) of 1, a fold induction at 48 h, 1 µM ([8]; hepatocyte Lot 336, 1 µM) of 1.3 and a fold induction at 48 h, 3 µM ([8]; hepatocyte Lot 336, 3 µM) of 1.9. The fold induction at 48 h, 5 µM ([8]; hepatocyte Lot 336, 5 µM) was 1.8, the fold induction at 48 h, 0.1 µM ([8]; hepatocyte Lot 399, 0.1 µM) was 1.2 and the fold induction at 48 h, 1 µM ([8]; hepatocyte Lot 399, 1 µM) was 1.2. It also gave a fold induction at 48 h, 3 µM ([8]; hepatocyte Lot 399, 3 µM) of 1.3, a fold induction at 48 h, 5 µM ([8]; hepatocyte Lot 399, 5 µM) of 1.2 and a fold induction at 48 h, 10 µM ([8]; hepatocyte Lot 399, 10 µM) of 1.2. For the same compound, the fold induction at 48 h, 10 µM ([9]; hepatocyte Lot 336, 10 µM) was 1.9, the fold induction at 48 h, 0.01 µM ([9]; hepatocyte Lot 348B, 0.01 µM) was 0.98 and the fold induction at 48 h, 0.1 µM ([9]; hepatocyte Lot 348B, 0.1 µM) was 1.2. For the same compound, the fold induction at 48 h, 1 µM ([9]; hepatocyte Lot 348B, 1 µM) was 1, the fold induction at 48 h, 3 µM ([9]; hepatocyte Lot 348B, 3 µM) was 1.1 and the fold induction at 48 h, 5 µM ([9]; hepatocyte Lot 348B, 5 µM) was 1.1. It also gave a fold induction at 48 h, 10 µM ([9]; hepatocyte Lot 348B, 10 µM) of 1.1, a fold induction at 48 h, 0.01 µM ([9]; hepatocyte Lot 399, 0.01 µM) of 1.1 and a remaining at 0 h, 1 μM [10, 13] of 100%. For the same compound, the remaining at 0 h, 10 μM [10, 13] was 100%, the remaining at 2 h, 1 μM [10, 13] was 96.7% and the remaining at 2 h, 10 μM [10, 13] was 95.1%. The remaining at 0 h, 1 μM ([10]; liver microsomes) was 100%, the remaining at 0 h, 10 μM ([10]; liver microsomes) was 100% and the remaining at 0.5 h, 1 μM ([10]; liver microsomes) was 41.1%. For the same compound, the remaining at 0.5 h, 10 μM ([10]; liver microsomes) was 69.7%, the remaining at 1 h, 1 μM ([10]; liver microsomes) was 25.9% and the remaining at 1 h, 10 μM ([10]; liver microsomes) was 60.1%. It also gave a remaining at 1.5 h, 1 μM ([10]; liver microsomes) of 22.3%, a remaining at 1.5 h, 10 μM ([10]; liver microsomes) of 55.5% and a remaining at 2 h, 1 μM ([10]; liver microsomes) of 16.4%. For the same compound, the remaining at 2 h, 10 μM ([10]; liver microsomes) was 48.9%, the “fold difference in mean uptake rate (substrate test)” value ([11]; OAT1, 1 μM, transporter cells vs control cells) was less than 2 fold and the “Inhibition (%)” value ([11]; OAT1, 0.1% BSA, 10 μM) was “no statistically significant inhibition”. It also gave an inhibition at 10 µM ([11]; human, polarized monolayer of MDCK-II cells expressing OAT1, OAT1, 0.1% BSA, 10 μM) of 8.97 ± 1.58%, an inhibition at 100 µM ([12]; read-out: inhibition, End) of 97.2% and an inhibition at 100 µM ([12]; read-out: inhibition, Peak) of 52.6%.
